Experimental data from patent US12264134B2 (Merck Sharp & Dohme LLC, priority 2018, dated 2025).

What follows are compounds tested against IDO1 (Homo sapiens, UniProt P14902) (assay: IDO1 Cellular Assay in HeLa Cells Stimulated with IFNγ). Details: read-out: HeLa Cell Potency, IC50.
Assay type: cell-based
Description: IDO1 Cellular Assay in HeLa Cells Stimulated with IFNγ
HeLa cells were cultured in complete HeLa culture medium (90% EMEM, 10% heat-inactivated fetal bovine serum) and expanded to about 1×10^9 cells. The cells were then collected and frozen down at 1×10^7 cells/vial in 1 mL frozen medium (90% complete HeLa culture medium, 10% DMSO).
Compounds to be tested were serially diluted in ten 3-fold steps in DMSO starting from 10 mM DMSO stocks in Echo low volume plate(s). Compound dilutions or DMSO alone were then dispensed from the dilution plate(s) into Greiner black 384-well assay plate(s) (catalog #781086, 50 nL/well) using an Echo 550 acoustic liquid handler (Labcyte).
Frozen HeLa cells were thawed and transferred into HeLa assay medium (99% complete HeLa culture medium, 1% Pen/Strep) with 20 mL medium/vial of cells. The cells were spun down at 250 g in a table top centrifuge for 5 min and suspended in same volume of HeLa assay medium. The cells were then counted and adjusted to a density of 2×10^5 cells/mL in HeLa assay medium. Sterile L-tryptophan were added to the cells with final concentration of 300 uM L-tryptophan. A small aliquot (2 mL/plate) of HeLa cells were set aside and were not treated with IFNγ, to serve as the Max-E control.
HeLa cells with and without IFNγ were dispensed to the respective wells of 384-well assay plates containing the compounds. The plates were incubated for about 48 hours at a 37° C., 5% CO2 incubator. Afterwards, 12 μL of 0.5 M methyl isonipecotate in dimethyl sulfoxide were added into each well and the plates were sealed and incubated at 37° C. without CO2 overnight. The plates were centrifuged for 1 min at 200×g. The resulting fluorescence was measured in a Spectramax plate reader (Molecular Devices) with a 400 nm excitation filter and a 510 nm emission filter.
The fluorescence intensity of each well was corrected for the background observed in wells with non-IFNγ-treated cells and was expressed as a fraction of the intensity observed in wells of IFNγ-treated cells and DMSO only. Potencies were calculated by linear least squares fit to the four parameter logistic IC50 equation.

Sequence of IDO1 (P14902 whole entry): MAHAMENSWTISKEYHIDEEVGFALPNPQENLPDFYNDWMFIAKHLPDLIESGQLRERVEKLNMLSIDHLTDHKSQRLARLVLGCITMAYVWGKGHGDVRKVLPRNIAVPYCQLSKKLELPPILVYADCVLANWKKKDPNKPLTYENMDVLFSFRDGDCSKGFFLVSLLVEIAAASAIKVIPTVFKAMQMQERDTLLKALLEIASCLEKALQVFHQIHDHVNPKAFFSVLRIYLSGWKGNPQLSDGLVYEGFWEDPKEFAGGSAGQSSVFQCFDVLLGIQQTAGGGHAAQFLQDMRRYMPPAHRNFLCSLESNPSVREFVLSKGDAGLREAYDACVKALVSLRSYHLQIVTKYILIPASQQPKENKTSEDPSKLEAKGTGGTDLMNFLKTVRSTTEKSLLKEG

Row | IC50 | Compound
1 | 0.124 µM | COc1ccc(N2CCN(C(=O)Cn3nc(C(=O)N4C[C@@H](C)O[C@@H](C)C4)c4c3CCC4)CC2)c(C)c1 [Example 38, 2-{3-[(2R,6S)-2,6-dimethylmorpholine-4-carbonyl]-5,6-dihydrocyclopenta[c]pyrazol-1(4H)-yl}-1-[4-(4-methoxy-2-methylphenyl)piperazin-1-yl]ethan-1-one]
2 | 0.374 µM | COc1cccc(N2CCN(C(=O)Cn3nc(C(=O)N4C[C@@H](C)O[C@@H](C)C4)c4c3CCC4)CC2)c1F [Example 39, 2-{3-[(2R,6S)-2,6-dimethylmorpholine-4-carbonyl]-5,6-dihydrocyclopenta[c]pyrazol-1(4H)-yl}-1-[4-(2-fluoro-3-methoxyphenyl)piperazin-1-yl]ethan-1-one]
3 | 0.0348 µM | Cc1cc(Cl)ccc1N1CCN(C(=O)Cn2nc(C(=O)N3C[C@@H](C)O[C@@H](C)C3)c3c2CCC3)CC1 [Example 43, 1-[4-(4-chloro-2-methylphenyl)piperazin-1-yl]-2-{3-[(2R,6S)-2,6-dimethylmorpholine-4-carbonyl]-5,6-dihydrocyclopenta[c]pyrazol-1(4H)-yl}ethan-1-one]
4 | 0.0452 µM | Cc1cc(F)ccc1N1CCN(C(=O)Cn2nc(C(=O)N3C[C@@H](C)O[C@@H](C)C3)c3c2CCC3)CC1 [Example 46, 2-{3-[(2R,6S)-2,6-dimethylmorpholine-4-carbonyl]-5,6-dihydrocyclopenta[c]pyrazol-1(4H)-yl}-1-[4-(4-fluoro-2-methylphenyl)piperazin-1-yl]ethan-1-one]
5 | 0.0135 µM | Cc1c(N2CCN(C(=O)Cn3nc(C(=O)N4C[C@@H](C)O[C@@H](C)C4)c4c3CCC4)CC2)ccc(F)c1F [Example 49, 1-[4-(3,4-difluoro-2-methylphenyl)piperazin-1-yl]-2-{3-[(2R,6S)-2,6-dimethylmorpholine-4-carbonyl]-5,6-dihydrocyclopenta[c]pyrazol-1(4H)-yl}ethan-1-one]
6 | 0.0151 µM | Cc1ccc(N2CCN(C(=O)Cn3nc(C(=O)N4C[C@@H](C)O[C@@H](C)C4)c4c3CCC4)CC2)c(C)c1 [Example 50, 2-{3-[(2R,6S)-2,6-dimethylmorpholine-4-carbonyl]-5,6-dihydrocyclopenta[c]pyrazol-1(4H)-yl}-1-[4-(2,4-dimethylphenyl)piperazin-1-yl]ethan-1-one]
7 | 0.0769 µM | Cc1cc(N2CCN(C(=O)Cn3nc(C(=O)N4C[C@@H](C)O[C@@H](C)C4)c4c3CCC4)CC2)ccc1F [Example 53]

The next lines start with the compound.

Row | Compound | IC50
8 | C[C@@H]1CN(C(=O)c2nn(CC(=O)N3CCN(c4ccc5c(c4)CCO5)CC3)c3c2CCC3)C[C@H](C)O1 [Example 31, 1-[4-(2,3-dihydro-1-benzofuran-5-yl)piperazin-1-yl]-2-{3-[(2R,6S)-2,6-dimethylmorpholine-4-carbonyl]-5,6-dihydrocyclopenta[c]pyrazol-1(4H)-yl}ethan-1-one] | 0.178 µM
9 | C[C@@H]1CN(C(=O)c2nn(CC(=O)N3CCN(c4cccc(F)c4Cl)CC3)c3c2CCC3)C[C@H](C)O1 [Example 32, 1-[4-(2-chloro-3-fluorophenyl)piperazin-1-yl]-2-{3-[(2R,6S)-2,6-dimethylmorpholine-4-carbonyl]-5,6-dihydrocyclopenta[c]pyrazol-1(4H)-yl}ethan-1-one] | 0.117 µM
10 | Cc1c(C#N)cccc1N1CCN(C(=O)Cn2nc(C(=O)N3C[C@@H](C)O[C@@H](C)C3)c3c2CCC3)CC1 [Example 33, 3-[4-({3-[(2R,6S)-2,6-dimethylmorpholine-4-carbonyl]-5,6-dihydrocyclopenta[c]pyrazol-1(4H)-yl}acetyl)piperazin-1-yl]-2-methylbenzonitrile] | 0.065 µM
11 | Cc1ccc(N2CCN(C(=O)Cn3nc(C(=O)N4C[C@@H](C)O[C@@H](C)C4)c4c3CCC4)CC2)cc1 [Example 34, 2-{3-[(2R,6S)-2,6-dimethylmorpholine-4-carbonyl]-5,6-dihydrocyclopenta[c]pyrazol-1(4H)-yl}-1-[4-(4-methylphenyl)piperazin-1-yl]ethan-1-one] | 0.142 µM
12 | C[C@@H]1CN(C(=O)c2nn(CC(=O)N3CCN(c4cccc(F)c4F)CC3)c3c2CCC3)C[C@H](C)O1 [Example 35, 1-[4-(2,3-difluorophenyl)piperazin-1-yl]-2-{3-[(2R,6S)-2,6-dimethylmorpholine-4-carbonyl]-5,6-dihydrocyclopenta[c]pyrazol-1(4H)-yl}ethan-1-one] | 0.487 µM
13 | COc1cc(F)cc(N2CCN(C(=O)Cn3nc(C(=O)N4C[C@@H](C)O[C@@H](C)C4)c4c3CCC4)CC2)c1 [Example 36, 2-{3-[(2R,6S)-2,6-dimethylmorpholine-4-carbonyl]-5,6-dihydrocyclopenta[c]pyrazol-1(4H)-yl}-1-[4-(3-fluoro-5-methoxyphenyl)piperazin-1-yl]ethan-1-one] | 0.0555 µM
14 | COc1cc(N2CCN(C(=O)Cn3nc(C(=O)N4C[C@@H](C)O[C@@H](C)C4)c4c3CCC4)CC2)ccc1C [Example 37, 2-{3-[(2R,6S)-2,6-dimethylmorpholine-4-carbonyl]-5,6-dihydrocyclopenta[c]pyrazol-1(4H)-yl}-1-[4-(3-methoxy-4-methylphenyl)piperazin-1-yl]ethan-1-one] | 0.234 µM
15 | Cc1cc(N2CCN(C(=O)Cn3nc(C(=O)N4C[C@@H](C)O[C@@H](C)C4)c4c3CCC4)CC2)cc(C)c1Cl [Example 40, 1-[4-(4-chloro-3,5-dimethylphenyl)piperazin-1-yl]-2-{3-[(2R,6S)-2,6-dimethylmorpholine-4-carbonyl]-5,6-dihydrocyclopenta[c]pyrazol-1(4H)-yl}ethan-1-one] | 0.223 µM
16 | Cc1cc(F)cc(N2CCN(C(=O)Cn3nc(C(=O)N4C[C@@H](C)O[C@@H](C)C4)c4c3CCC4)CC2)c1 [Example 41, 2-{3-[(2R,6S)-2,6-dimethylmorpholine-4-carbonyl]-5,6-dihydrocyclopenta[c]pyrazol-1(4H)-yl}-1-[4-(3-fluoro-5-methylphenyl)piperazin-1-yl]ethan-1-one] | 0.243 µM
17 | C[C@@H]1CN(C(=O)c2nn(CC(=O)N3CCN(c4ccc(Cl)cc4)CC3)c3c2CCC3)C[C@H](C)O1 [Example 42, 1-[4-(4-chlorophenyl)piperazin-1-yl]-2-{3-[(2R,6S)-2,6-dimethylmorpholine-4-carbonyl]-5,6-dihydrocyclopenta[c]pyrazol-1(4H)-yl}ethan-1-one] | 0.147 µM
18 | C[C@@H]1CN(C(=O)c2nn(CC(=O)N3CCN(c4cc(F)c(F)cc4Cl)CC3)c3c2CCC3)C[C@H](C)O1 [Example 44, 1-[4-(2-chloro-4,5-difluorophenyl)piperazin-1-yl]-2-{3-[(2R,6S)-2,6-dimethylmorpholine-4-carbonyl]-5,6-dihydrocyclopenta[c]pyrazol-1(4H)-yl}ethan-1-one] | 0.26 µM
19 | C[C@@H]1CN(C(=O)c2nn(CC(=O)N3CCN(c4ccc(F)c(F)c4)CC3)c3c2CCC3)C[C@H](C)O1 [Example 45, 1-[4-(3,4-difluorophenyl)piperazin-1-yl]-2-{3-[(2R,6S)-2,6-dimethylmorpholine-4-carbonyl]-5,6-dihydrocyclopenta[c]pryazol-1(4H)-yl}ethan-1-one] | 0.233 µM
20 | COc1ccc(N2CCN(C(=O)Cn3nc(C(=O)N4C[C@@H](C)O[C@@H](C)C4)c4c3CCC4)CC2)c(C)c1C [Example 47, 2-{3-[(2R,6S)-2,6-dimethylmorpholine-4-carbonyl]-5,6-dihydrocyclopenta[c]pyrazol-1(4H)-yl}-1-[4-(4-methoxy-2,3-dimethylphenyl)piperazin-1-yl]ethan-1-one] | 0.083 µM
21 | C[C@@H]1CN(C(=O)c2nn(CC(=O)N3CCN(c4ccc(C(F)(F)F)cc4)CC3)c3c2CCC3)C[C@H](C)O1 [Example 51, 2-{3-[(2R,6S)-2,6-dimethylmorpholine-4-carbonyl]-5,6-dihydrocyclopenta[c]pyrazol-1(4H)-yl}-1-{4-[4-(trifluoromethyl)phenyl]piperazin-1-yl}ethan-1-one] | 0.173 µM
22 | C[C@@H]1CN(C(=O)c2nn(CC(=O)N3CCN(c4cccc5c4CCCC5)CC3)c3c2CCC3)C[C@H](C)O1 [Example 52, 2-{3-[(2R,6S)-2,6-dimethylmorpholine-4-carbonyl]-5,6-dihydrocyclopenta[c]pyrazol-1(4H)-yl}-1-[4-(5,6,7,8-tetrahydronaphthalen-1-yl)piperazin-1-yl]ethan-1-one] | 0.0104 µM
23 | C[C@@H]1CN(C(=O)c2nn(CC(=O)N3CCN(c4ccc(Cl)c(F)c4)CC3)c3c2CCC3)C[C@H](C)O1 [Example 54, 1-[4-(4-chloro-3-fluorophenyl)piperazin-1-yl]-2-{3-[(2R,6S)-2,6-dimethylmorpholine-4-carbonyl]-5,6-dihydrocyclopenta[c]pyrazol-1(4H)-yl}ethan-1-one] | 0.0571 µM
24 | C[C@@H]1CN(C(=O)c2nn(CC(=O)N3CCN(c4ccccc4Cl)CC3)c3c2CCC3)C[C@H](C)O1 [Example 55, 1-[4-(2-chlorophenyl)piperazin-1-yl]-2-{3-[(2R,6S)-2,6-dimethylmorpholine-4-carbonyl]-5,6-dihydrocyclopenta[c]pyrazol-1(4H)-yl}ethan-1-one] | 0.244 µM
